Test results reported in paper PMC7486443, “Generation of Phenothiazine with Potent Anti-TLK1 Activity for Prostate Cancer Therapy” (iScience, 2020).

Legend:
Assay in all cases: biochemical
Design in all cases: DiscoverX KINOMEscan scanMAX competition binding panel, single concentration, percent of control; remaining binding: dose or concentration left out as unconfirmed
Details in all cases: KINOMEscan binding, percent of control; read-out: Table S4_SCANMAX REPORT - related to Fig. 1 / Percent Control
ABL2 = ABL2 (Homo sapiens, UniProt P42684)
ADCK4 = target: T1, ADCK4 (Homo sapiens, UniProt Q96D53)
T1 construct: gene COQ8B

AKT1 = AKT1 (Homo sapiens, UniProt P31749)
CAMK1G = CAMK1G (Homo sapiens, UniProt Q96NX5)
CAMK2A = CAMK2A (Homo sapiens, UniProt Q9UQM7)
CAMK2G = CAMK2G (Homo sapiens, UniProt Q13555)
FRK = FRK (Homo sapiens, UniProt P42685)
HPK1 = target: T2, HPK1 (Homo sapiens, UniProt Q92918)
T2 construct: gene MAP4K1

IGF1R = IGF1R (Homo sapiens, UniProt P08069)
IRAK4 = IRAK4 (Homo sapiens, UniProt Q9NWZ3)
PIK3CA(Q546K) = PIK3CA(Q546K) (Homo sapiens, UniProt P42336, Q546K)
PIP5K1C = PIP5K1C (Homo sapiens, UniProt O60331)
PKN2 = PKN2 (Homo sapiens, UniProt Q16513)
PRKCD = PRKCD (Homo sapiens, UniProt Q05655)
RIPK1 = RIPK1 (Homo sapiens, UniProt Q13546)
[1] = target: T3, RPS6KA5(Kin.Dom.1-N-terminal) (Homo sapiens, UniProt O75582)
T3 construct: Kin.Dom.1-N-terminal

[2] = target: T4, RSK1(Kin.Dom.2-C-terminal) (Homo sapiens, UniProt Q15418)
T4 construct: gene RPS6KA1; Kin.Dom.2-C-terminal

SLK = SLK (Homo sapiens, UniProt Q9H2G2)
SLK, sequence (Q9H2G2 whole entry): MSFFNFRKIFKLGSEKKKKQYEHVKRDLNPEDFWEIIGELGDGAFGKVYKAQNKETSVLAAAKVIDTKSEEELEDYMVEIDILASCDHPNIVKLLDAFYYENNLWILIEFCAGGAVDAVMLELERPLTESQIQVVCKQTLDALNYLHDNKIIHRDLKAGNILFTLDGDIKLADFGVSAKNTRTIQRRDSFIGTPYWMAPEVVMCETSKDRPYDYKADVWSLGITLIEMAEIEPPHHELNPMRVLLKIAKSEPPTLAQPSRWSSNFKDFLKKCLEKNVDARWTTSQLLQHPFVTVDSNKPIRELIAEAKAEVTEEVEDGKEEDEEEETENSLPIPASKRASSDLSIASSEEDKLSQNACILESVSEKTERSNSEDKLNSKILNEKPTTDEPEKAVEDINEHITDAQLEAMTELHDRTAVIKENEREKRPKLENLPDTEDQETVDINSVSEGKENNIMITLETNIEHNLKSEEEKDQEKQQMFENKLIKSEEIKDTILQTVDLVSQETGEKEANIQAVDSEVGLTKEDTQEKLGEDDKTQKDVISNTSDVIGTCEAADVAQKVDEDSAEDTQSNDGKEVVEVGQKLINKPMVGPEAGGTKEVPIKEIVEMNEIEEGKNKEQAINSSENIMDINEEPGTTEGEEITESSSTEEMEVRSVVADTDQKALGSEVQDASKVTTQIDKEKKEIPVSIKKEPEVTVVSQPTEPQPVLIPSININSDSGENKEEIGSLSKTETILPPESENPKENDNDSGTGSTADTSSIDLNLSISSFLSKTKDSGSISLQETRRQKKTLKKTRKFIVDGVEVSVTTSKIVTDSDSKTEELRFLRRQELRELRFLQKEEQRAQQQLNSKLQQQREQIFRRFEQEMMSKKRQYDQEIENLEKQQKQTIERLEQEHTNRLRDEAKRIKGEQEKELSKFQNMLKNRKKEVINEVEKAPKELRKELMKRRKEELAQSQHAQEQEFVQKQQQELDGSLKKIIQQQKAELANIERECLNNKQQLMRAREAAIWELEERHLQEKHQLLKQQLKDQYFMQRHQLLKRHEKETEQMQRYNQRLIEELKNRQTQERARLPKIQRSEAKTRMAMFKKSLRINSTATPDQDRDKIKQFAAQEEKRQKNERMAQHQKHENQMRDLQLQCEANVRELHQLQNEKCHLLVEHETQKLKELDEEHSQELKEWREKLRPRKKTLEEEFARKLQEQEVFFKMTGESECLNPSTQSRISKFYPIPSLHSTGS

PRKCD, sequence (Q05655 whole entry): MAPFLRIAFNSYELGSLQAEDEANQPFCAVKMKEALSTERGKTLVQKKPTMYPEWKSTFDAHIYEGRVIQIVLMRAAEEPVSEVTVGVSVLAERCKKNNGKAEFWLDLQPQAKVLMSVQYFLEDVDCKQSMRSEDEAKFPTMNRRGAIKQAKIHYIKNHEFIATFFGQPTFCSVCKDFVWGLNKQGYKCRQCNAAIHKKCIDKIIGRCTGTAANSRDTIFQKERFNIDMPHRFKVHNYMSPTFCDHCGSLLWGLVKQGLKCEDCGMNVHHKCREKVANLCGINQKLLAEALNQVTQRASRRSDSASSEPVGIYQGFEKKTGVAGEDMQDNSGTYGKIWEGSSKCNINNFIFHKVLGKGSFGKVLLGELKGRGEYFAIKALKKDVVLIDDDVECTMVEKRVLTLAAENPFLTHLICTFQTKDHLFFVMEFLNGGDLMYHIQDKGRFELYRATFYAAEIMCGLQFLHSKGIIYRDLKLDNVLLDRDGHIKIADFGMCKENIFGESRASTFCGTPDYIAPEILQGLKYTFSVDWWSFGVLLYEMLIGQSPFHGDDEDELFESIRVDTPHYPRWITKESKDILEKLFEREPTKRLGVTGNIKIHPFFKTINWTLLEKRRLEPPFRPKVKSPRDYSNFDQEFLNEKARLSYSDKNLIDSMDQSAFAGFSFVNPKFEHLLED
PKN2, sequence (Q16513 whole entry): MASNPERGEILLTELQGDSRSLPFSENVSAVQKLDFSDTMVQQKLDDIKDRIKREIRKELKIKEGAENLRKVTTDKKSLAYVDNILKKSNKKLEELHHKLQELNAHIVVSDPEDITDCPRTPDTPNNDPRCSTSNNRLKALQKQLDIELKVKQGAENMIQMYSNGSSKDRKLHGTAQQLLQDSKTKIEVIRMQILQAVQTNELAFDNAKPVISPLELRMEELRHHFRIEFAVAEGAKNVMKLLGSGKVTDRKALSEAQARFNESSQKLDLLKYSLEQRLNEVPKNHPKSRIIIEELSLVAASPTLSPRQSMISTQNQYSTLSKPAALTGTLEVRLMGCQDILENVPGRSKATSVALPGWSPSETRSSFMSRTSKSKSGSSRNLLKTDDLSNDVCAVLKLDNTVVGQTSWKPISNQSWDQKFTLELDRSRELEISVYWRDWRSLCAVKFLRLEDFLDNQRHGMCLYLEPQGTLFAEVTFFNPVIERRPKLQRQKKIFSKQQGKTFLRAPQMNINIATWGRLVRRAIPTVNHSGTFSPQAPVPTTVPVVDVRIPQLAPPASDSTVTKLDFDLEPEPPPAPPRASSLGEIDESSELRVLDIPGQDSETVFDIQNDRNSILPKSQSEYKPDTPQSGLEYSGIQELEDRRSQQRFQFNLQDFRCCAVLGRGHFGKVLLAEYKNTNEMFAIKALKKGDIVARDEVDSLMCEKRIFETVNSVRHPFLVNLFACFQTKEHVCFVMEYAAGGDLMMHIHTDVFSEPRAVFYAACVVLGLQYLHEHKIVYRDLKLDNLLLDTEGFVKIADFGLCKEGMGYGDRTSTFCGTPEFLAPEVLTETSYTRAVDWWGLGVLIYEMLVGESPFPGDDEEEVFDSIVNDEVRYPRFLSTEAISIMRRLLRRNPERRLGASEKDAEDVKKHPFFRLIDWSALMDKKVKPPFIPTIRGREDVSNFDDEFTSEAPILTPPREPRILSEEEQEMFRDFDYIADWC
CAMK2A, sequence (Q9UQM7 whole entry): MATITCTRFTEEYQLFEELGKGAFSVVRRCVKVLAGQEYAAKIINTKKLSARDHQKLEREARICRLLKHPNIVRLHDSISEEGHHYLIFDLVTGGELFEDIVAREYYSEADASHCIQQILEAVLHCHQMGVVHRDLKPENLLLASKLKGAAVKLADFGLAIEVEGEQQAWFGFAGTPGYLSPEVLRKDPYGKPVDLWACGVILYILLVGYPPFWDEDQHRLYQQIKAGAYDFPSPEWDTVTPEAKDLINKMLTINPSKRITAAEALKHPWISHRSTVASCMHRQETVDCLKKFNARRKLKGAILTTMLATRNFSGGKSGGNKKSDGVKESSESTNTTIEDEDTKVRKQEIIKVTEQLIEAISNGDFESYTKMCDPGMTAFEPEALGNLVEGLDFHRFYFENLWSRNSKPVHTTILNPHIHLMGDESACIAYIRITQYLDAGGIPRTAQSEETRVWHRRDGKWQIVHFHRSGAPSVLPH
T4 sequence (Q15418 whole entry): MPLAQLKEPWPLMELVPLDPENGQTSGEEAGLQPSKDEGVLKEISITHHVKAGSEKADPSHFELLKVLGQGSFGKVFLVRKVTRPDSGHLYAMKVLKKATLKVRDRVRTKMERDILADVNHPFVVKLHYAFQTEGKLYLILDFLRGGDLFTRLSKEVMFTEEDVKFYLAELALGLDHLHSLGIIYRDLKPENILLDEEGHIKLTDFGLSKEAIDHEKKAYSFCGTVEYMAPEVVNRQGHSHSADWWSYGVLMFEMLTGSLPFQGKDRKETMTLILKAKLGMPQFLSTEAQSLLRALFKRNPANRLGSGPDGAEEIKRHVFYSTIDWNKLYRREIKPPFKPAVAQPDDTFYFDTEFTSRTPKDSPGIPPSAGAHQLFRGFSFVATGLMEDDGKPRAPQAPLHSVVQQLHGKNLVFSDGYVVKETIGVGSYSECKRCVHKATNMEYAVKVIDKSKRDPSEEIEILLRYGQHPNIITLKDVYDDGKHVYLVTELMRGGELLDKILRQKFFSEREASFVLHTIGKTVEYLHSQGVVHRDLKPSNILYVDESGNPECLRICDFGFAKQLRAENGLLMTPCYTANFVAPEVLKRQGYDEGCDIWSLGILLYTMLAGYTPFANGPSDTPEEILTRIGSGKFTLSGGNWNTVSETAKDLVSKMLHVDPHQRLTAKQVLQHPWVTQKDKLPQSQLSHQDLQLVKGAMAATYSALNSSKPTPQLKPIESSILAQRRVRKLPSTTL
AKT1, sequence (P31749 whole entry): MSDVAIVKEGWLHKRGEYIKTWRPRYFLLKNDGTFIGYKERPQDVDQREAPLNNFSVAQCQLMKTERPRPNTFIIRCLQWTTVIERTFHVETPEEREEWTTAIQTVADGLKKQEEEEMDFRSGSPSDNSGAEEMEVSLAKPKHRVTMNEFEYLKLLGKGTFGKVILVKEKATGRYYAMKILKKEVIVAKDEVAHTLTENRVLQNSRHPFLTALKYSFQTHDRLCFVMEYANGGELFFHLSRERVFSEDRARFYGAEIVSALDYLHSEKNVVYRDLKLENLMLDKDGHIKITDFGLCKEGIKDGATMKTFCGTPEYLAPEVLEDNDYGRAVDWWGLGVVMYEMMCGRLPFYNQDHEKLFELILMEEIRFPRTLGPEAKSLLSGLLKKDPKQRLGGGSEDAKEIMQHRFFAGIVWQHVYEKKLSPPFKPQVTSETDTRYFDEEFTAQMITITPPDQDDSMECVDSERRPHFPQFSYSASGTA
IRAK4, sequence (Q9NWZ3 whole entry): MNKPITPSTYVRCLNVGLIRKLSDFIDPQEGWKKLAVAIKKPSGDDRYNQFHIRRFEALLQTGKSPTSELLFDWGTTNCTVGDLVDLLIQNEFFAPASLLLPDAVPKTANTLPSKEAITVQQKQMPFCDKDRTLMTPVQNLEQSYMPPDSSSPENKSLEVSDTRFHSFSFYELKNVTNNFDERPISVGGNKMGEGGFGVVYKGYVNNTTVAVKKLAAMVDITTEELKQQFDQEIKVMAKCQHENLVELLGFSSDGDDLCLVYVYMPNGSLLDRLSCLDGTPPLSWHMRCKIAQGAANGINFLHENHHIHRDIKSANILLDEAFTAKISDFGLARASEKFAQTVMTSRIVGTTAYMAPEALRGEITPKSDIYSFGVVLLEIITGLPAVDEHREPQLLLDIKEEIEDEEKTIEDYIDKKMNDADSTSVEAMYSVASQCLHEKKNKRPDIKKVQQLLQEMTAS

`c1ccc2c(c1)Sc1ccccc1N2CCN1CCOCC1` [J54] gave a remaining binding (ABL2) of 100%, a remaining binding (ADCK4) of 75% and a remaining binding (AKT1) of 97%. The remaining binding (CAMK1G) was 100%, the remaining binding (CAMK2A) was 78% and the remaining binding (CAMK2G) was 100%. It also gave a remaining binding (FRK) of 100%, a remaining binding (HPK1) of 100% and a remaining binding (IGF1R) of 56%. For the same compound, the remaining binding (IRAK4) was 100%, the remaining binding (PIK3CA(Q546K)) was 100% and the remaining binding (PIP5K1C) was 100%. For the same compound, the remaining binding (PKN2) was 69%, the remaining binding (PRKCD) was 100% and the remaining binding (RIPK1) was 84%. The remaining binding [1] was 100%, the remaining binding [2] was 100% and the remaining binding (SLK) was 100%.
